Consider five compounds from patent US20170008888A1 (KYORIN PHARMACEUTICAL CO., LTD., priority 2014, published 2017).

SMILES strings stand for the structures. Read-outs that look alike come from different tables or passages of the source.

For assay [1], the system named is human Th17 cells. Description: Cytokine response by in vitro-polarized human Th17 cells stimulated with PMA/ionomycin. Format: cell-based. The settings on record: 10 μM compound, PMA/ionomycin 20 h. The procedure: In vitro differentiation of human Th17 cells: Human CD4+ T cells (isolated as described in protocol A) were polarized into Th17 cells as follows: Tissue culture-treated 100 mm plates (Corning, Corning, N.Y.) were coated with 10 μg/ml anti-human CD3 clone OKT3 antibody overnight at 4° C. Polarization was initiated by seeding approximately 2-3 e7 human CD4+ T cells onto the anti-CD3 plates in Polarization media consisting of: RPMI 1640 medium (Lonza, Allendale, N.J.) supplemented with 10% (v/v) charcoal-dextran treated, heat inactivated FBS (Omega Scientific, Tarzana, Calif.), 0.05 mM 2-Mercaptoethanol (Sigma-Aldrich, St. Louis, Mo.), and 1×Pen/Strep Amphotericin B (Lonza), with added recombinant human IL-23 (40 ng/ml) and anti-CD28 clone CD28.2 antibody (2 μg/ml); all recombinant human cytokines and anti-human neutralizing antibodies were purchased from eBioscience (San Diego, Calif.). Cells were incubated in the above Polarization media for 3 days at 37° C. in a humidified atmosphere at 5% CO2. After 3 days, the Polarization media was replaced with Maintenance media, consisting of RPMI 1640/FBS/2-Mercaptoethanol/Pen/Strep Amphotericin B supplemented with recombinant human IL-23 (40 ng/ml) alone, and the cells were re-plated onto regular tissue-culture-treated plates (not anti-CD3 coated). Cells were incubated in the Maintenance media for an additional 3 days at 37° C. in a humidified atmosphere at 5% CO2.
Inhibition of PMA/ionomycin-stimulated cytokine response by in vitro-differentiated human Th17 cells: Human Th17 cells, generated as described above, were seeded at 2e6 cells/ml in RPMI 1640 containing 10% (v/v) charcoal-dextran treated, heat inactivated FBS (Omega Scientific, Tarzana, Calif.), 0.05 mM 2-Mercaptoethanol (Sigma-Aldrich, St. Louis, Mo.), and 1×Pen/Strep Amphotericin B (Lonza, Allendale, N.J.). Cells were pre-treated with test compounds (10 μM) for 1 h at 37° C. in a humidified atmosphere at 5% CO2. Cells were then stimulated with 50 ng/ml phorbol 12-myristate 13-acetate (PMA) (Sigma-Aldrich, St. Louis, Mo.)+1 μg/ml ionomycin (Life Technologies, Grand Island, N.Y.) for 20 h at 37° C. in a humidified atmosphere at 5% CO2. Supernatant was collected and analyzed using Bio-Plex Pro Human Th17 Cytokine 15-Plex Panel (Bio-Rad Laboratories, Hercules, Calif.) as per manufacturer's protocols. Magnetic beads were read on the Bio-Plex MAGPIX multiplex reader instrument using the accompanying xPONENT 4.2 acquisition software (Bio-Rad Laboratories). Data were analyzed via the Bio-Plex Manager software v6.1 (Bio-Rad Laboratories). Cytokine secretion levels from Th17 cells treated with 0.1% DMSO+Stimulation were normalized to 100%.
IL-1β, IL-25, and IL-33 were below the limit of detection under conditions used. The concentrations of the observed analytes from top to bottom, as listed, are as follows: 8899, 567, 174, 99, 10380, 511, 239, 548, 81, 966, 504, and 76223 pg/ml.

In assay [2] the test system is primary asthmatic human bronchial epithelial cells. Description: IL-17A- or IL-17F-mediated cytokine response by primary asthmatic human bronchial epithelial cells. The following applies: Epithelial cell, 48 h, 48 h. The format is cell-based. Here is the method: The virally immortalized, normal human bronchial epithelial cell line BEAS-2B was purchased from ATCC (Manassas, Va.). Primary bronchial epithelial cells isolated from a patient diagnosed with asthma were obtained from Lonza (Allendale, N.J.). Both cells were maintained in complete Bronchial Epithelial Cell Growth Medium (BEGM) (Lonza). Cells were seeded at 1e5 cells/ml and incubated at 37° C. in a humidified atmosphere at 5% CO2 overnight to adhere. Cells were pre-treated with test compounds (10 μM down by ⅕ in a 3- or 4-point serial dilution series) for 1 h at 37° C. in a humidified atmosphere at 5% CO2. DMSO at a final concentration of 0.1% served as the non-inhibited control. Budesonide (Selleck Chemicals, Houston, Tex.), a clinically approved glucocorticoid steroid for the treatment of asthma, was tested as a positive control at 0.25 μM. Cells were stimulated with 50 ng/ml of either human recombinant IL-17A or IL-17F (eBioscience, San Diego, Calif.), for 48 h. Supernatant was then collected and analyzed for cytokine concentrations using the Bio-Plex Pro Human Cytokine 17-Plex Panel (Bio-Rad Laboratories, Hercules, Calif.) according to the manufacturer's instructions. Magnetic beads were measured on the Bio-Plex MAGPIX multiplex reader instrument using the accompanying xPONENT 4.2 acquisition software (Bio-Rad Laboratories). Data were analyzed via the Bio-Plex Manager software v6.1 (Bio-Rad Laboratories). For the primary asthmatic bronchial epithelial cells, five (+IL-17F) to thirteen (+IL-17A) cytokines were in range of detection under the conditions used. […] Select cytokines were analyzed for comparison using the BEAS-2B cell line.
BLQ: cytokine levels were below limits of quantitation.

Where [3] appears, read: read-out: Percent inhibition of IFNγ (relative to DMSO control).
Setting [4] is: read-out: Percent inhibition of IL-4 (relative to DMSO control).
Setting [5] is: read-out: Percent inhibition of IL-6 (relative to DMSO control).
Where [6] appears, read: read-out: Percent inhibition of IL-10 (relative to DMSO control).
Setting [7] is: read-out: Percent inhibition of IL-17A (relative to DMSO control).
The mark [8] stands for this setting: read-out: Percent inhibition of IL-17F (relative to DMSO control).
Where [9] appears, read: read-out: Percent inhibition of IL-21 (relative to DMSO control).
Setting [10] is: read-out: Percent inhibition of IL-22 (relative to DMSO control).
The mark [11] stands for this setting: read-out: Percent inhibition of IL-23 (relative to DMSO control).
Where [12] appears, read: read-out: Percent inhibition of IL-31 (relative to DMSO control).
Setting [13] is: read-out: Percent inhibition of TNFα (relative to DMSO control).
The mark [14] stands for this setting: read-out: Percent inhibition of sCD40L (relative to DMSO control).
[15] abbreviates: +50 ng/ml IL-17A, read-out: EC50 values (μM), G-CSF.
Where [16] appears, read: +50 ng/ml IL-17A, read-out: EC50 values (μM), GM-CSF.
Where [17] appears, read: +50 ng/ml IL-17A, read-out: EC50 values (μM), IFN-γ.
Setting [18] is: +50 ng/ml IL-17A, read-out: EC50 values (μM), IL-1β.
The mark [19] stands for this setting: +50 ng/ml IL-17A, read-out: EC50 values (μM), IL-2.
Setting [20] is: +50 ng/ml IL-17A, read-out: EC50 values (μM), IL-6.
[21] abbreviates: +50 ng/ml IL-17A, read-out: EC50 values (μM), IL-8.
The mark [22] stands for this setting: +50 ng/ml IL-17A, read-out: EC50 values (μM), MCP-1.
Setting [23] is: +50 ng/ml IL-17F, read-out: EC50 values (μM), G-CSF.
The mark [24] stands for this setting: +50 ng/ml IL-17F, read-out: EC50 values (μM), IFN-γ.
Where [25] appears, read: +50 ng/ml IL-17F, read-out: EC50 values (μM), IL-1β.
Where [26] appears, read: +50 ng/ml IL-17F, read-out: EC50 values (μM), IL-6.
Setting [27] is: +50 ng/ml IL-17F, read-out: EC50 values (μM), IL-8.

A word on the inhibition: it is the relative decrease from the control value, in per cent. Take `CCOc1cc(C(=O)N2CCC(N3CCCC3)CC2)ccc1Nc1cc2c(cn1)N(C)C(=O)c1ccccc1N2C` [Compound 46, 3-(2-Ethoxy-4-(4-(pyrrolidin-1-yl)piperidine-1-carbonyl)phenylamino)-5,11-dimethyl-5H-benzo[e]pyrido[3,4-b][1,4]diazepin-10(11H)-one]: the inhibition at 10 µM in assay [1] (setting [3]) was 11.9%; in assay [1] (setting [4]) it was -2.8%; in assay [1] (setting [5]), 90.6%; in assay [1] (setting [6]), 79.7%; in assay [1] (setting [7]), 56.6%; in assay [1] (setting [8]), 81.8%. Moreover, the inhibition at 10 µM is -6.1% in assay [1] (setting [9]); 74% in assay [1] (setting [10]); -58.8% in assay [1] (setting [11]); -3% in assay [1] (setting [12]); 22% in assay [1] (setting [13]); 36.3% in assay [1] (setting [14]).

Take `CCOc1cc(C(=O)NCC2CC2)ccc1Nc1cc2c(cn1)N(C)C(=O)c1ccccc1N2C` [Compound 57]: the inhibition at 10 µM in assay [1] (setting [3]) is 17.4%; in assay [1] (setting [4]), -11.8%; in assay [1] (setting [5]) it was 93.1%; in assay [1] (setting [6]) it was 80%; in assay [1] (setting [7]), 49.5%; in assay [1] (setting [8]) it was 67.4%. Further, the inhibition at 10 µM in assay [1] (setting [9]) was found to be 28.6%; in assay [1] (setting [10]), 76.8%; in assay [1] (setting [11]), 29.8%; in assay [1] (setting [12]) it was 3%; in assay [1] (setting [13]), 5.6%; in assay [1] (setting [14]), 32.3%.

As usually defined, the EC50 is the midpoint of the concentration-response curve. For `CCOc1cc(C(=O)N2CCC(N3CCN(C)CC3)CC2)ccc1Nc1cc2c(cn1)N(C)C(=O)c1ccccc1N2C` [Compound 61], the inhibition at 10 µM in assay [1] (setting [3]) was 7.6%; in assay [1] (setting [4]), -19.5%; in assay [1] (setting [5]), 91.4%; in assay [1] (setting [6]) it was 78.6%; in assay [1] (setting [7]) it was 37.5%; in assay [1] (setting [8]), 80.9%. The inhibition at 10 µM in assay [1] (setting [9]) is 22.4%; in assay [1] (setting [10]), 65.8%; in assay [1] (setting [11]), -2.8%; in assay [1] (setting [12]), -1.1%; in assay [1] (setting [13]), -6.3%; in assay [1] (setting [14]), 19%. Further, the EC50 is 1.66 µM in assay [2] (setting [15]); 3.38 µM in assay [2] (setting [16]); over 10 µM in assay [2] (setting [17]); 1.26 µM in assay [2] (setting [18]); 10.5 µM in assay [2] (setting [19]); 0.5 µM in assay [2] (setting [20]). Moreover, the half-maximal effective concentration (EC50) in assay [2] (setting [21]) amounted to 0.51 µM; in assay [2] (setting [22]) it was 6.25 µM; in assay [2] (setting [23]), 0.91 µM; in assay [2] (setting [24]) it was 0.6 µM; in assay [2] (setting [25]), 0.79 µM; in assay [2] (setting [26]), 0.38 µM. Besides, in assay [2] (setting [27]), the EC50 came out at 0.52 µM.

As to `CCOc1cc(C(=O)N2CCNCC2)ccc1Nc1cc2c(cn1)N(C)C(=O)c1ccccc1N2C` [Compound 62], the inhibition at 10 µM in assay [1] (setting [3]) was 11.7%; in assay [1] (setting [4]), -17%; in assay [1] (setting [5]) it was 87.8%; in assay [1] (setting [6]), 80.3%; in assay [1] (setting [7]), 27.7%; in assay [1] (setting [8]) it was 60%. For the same compound, the inhibition at 10 µM in assay [1] (setting [9]) is 2.5%; in assay [1] (setting [10]), 66.2%; in assay [1] (setting [11]) it was 15.8%; in assay [1] (setting [12]), -1.4%; in assay [1] (setting [13]) it was -10.4%; in assay [1] (setting [14]) it was 31.9%.

As for `CCOc1cc(C(=O)N2CCC(N3CCN(C)CC3)CC2)ccc1Nc1cc2c(cn1)N(C)C(=O)c1occc1N2C` [Compound 65], the inhibition at 10 µM in assay [1] (setting [3]) was -0.6%; in assay [1] (setting [4]), 4.6%; in assay [1] (setting [5]), 87.3%; in assay [1] (setting [6]), 78.6%; in assay [1] (setting [7]) it was 13.9%; in assay [1] (setting [8]) it was 39.7%. The inhibition at 10 µM in assay [1] (setting [9]) is 0.8%; in assay [1] (setting [10]), 61.7%; in assay [1] (setting [11]) it was -79.4%; in assay [1] (setting [12]), -3.2%; in assay [1] (setting [13]), 11.3%; in assay [1] (setting [14]) it was 31.6%. Also, the EC50 was 2.68 µM in assay [2] (setting [15]); 4.06 µM in assay [2] (setting [16]); over 10 µM in assay [2] (setting [17]); 1.57 µM in assay [2] (setting [18]); over 10 µM in assay [2] (setting [19]); 0.56 µM in assay [2] (setting [20]). Besides, the EC50 was 0.63 µM in assay [2] (setting [21]); over 10 µM in assay [2] (setting [22]); 1.77 µM in assay [2] (setting [23]); 1.98 µM in assay [2] (setting [24]); 1.57 µM in assay [2] (setting [25]); 0.59 µM in assay [2] (setting [26]). The EC50 in assay [2] (setting [27]) was 1.27 µM.
